# Experimental data from PubChem BioAssay AID624129 (Sanford-Burnham Center for Chemical Genomics, 2012).
# pIC50: −log10 of the molar value. The source made the active and inactive calls. The rule behind the calls is not given here.
# What was measured:
# Assay in all cases: potency against CXCR6 with APJ panel – cell-based, beta-arrestin, DiscoveRx, uHTS hits, dose response (AID 624129)
# [1] = target: C-X-C chemokine receptor type 6 (Homo sapiens) (UniProt O00574); details: CXCR6 beta-arrestin (DiscoveRx) antagonist cell assay; for inhibition: CXCR6, run 1, dose range 2, at 80 µM (top of the series)
# [2] = target: Beta-galactosidase (Escherichia coli) (UniProt Q8VNN2); details: CXCR6 beta-arrestin (DiscoveRx) antagonist cell assay, b-galactosidase
# [3] = target: C-C chemokine receptor type 6 (Homo sapiens) (UniProt P51684); details: CXCR6 beta-arrestin (DiscoveRx) antagonist cell assay
# [4] = target: Apelin receptor (Homo sapiens) (UniProt P35414); details: CXCR6 beta-arrestin (DiscoveRx) antagonist cell assay, APJ
# [5] = CXCR6, dose range 1, mean IC50 across replicates
# [6] = dose range 1, mean IC50 across replicates
# [7] = CCR6, dose range 1, mean IC50 across replicates
# Sequence of C-X-C chemokine receptor type 6 (Homo sapiens) (O00574 whole entry, looked up): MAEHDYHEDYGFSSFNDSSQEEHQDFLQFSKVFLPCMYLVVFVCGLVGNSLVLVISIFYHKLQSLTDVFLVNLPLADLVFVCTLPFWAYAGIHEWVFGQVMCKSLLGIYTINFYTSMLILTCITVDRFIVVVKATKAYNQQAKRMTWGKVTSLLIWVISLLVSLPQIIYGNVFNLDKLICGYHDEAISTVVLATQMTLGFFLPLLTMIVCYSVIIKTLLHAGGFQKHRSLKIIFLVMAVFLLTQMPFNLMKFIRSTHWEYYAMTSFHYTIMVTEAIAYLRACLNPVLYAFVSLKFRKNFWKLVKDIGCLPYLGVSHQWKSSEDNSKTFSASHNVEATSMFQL
# Sequence of Beta-galactosidase (Escherichia coli) (Q8VNN2 whole entry, looked up): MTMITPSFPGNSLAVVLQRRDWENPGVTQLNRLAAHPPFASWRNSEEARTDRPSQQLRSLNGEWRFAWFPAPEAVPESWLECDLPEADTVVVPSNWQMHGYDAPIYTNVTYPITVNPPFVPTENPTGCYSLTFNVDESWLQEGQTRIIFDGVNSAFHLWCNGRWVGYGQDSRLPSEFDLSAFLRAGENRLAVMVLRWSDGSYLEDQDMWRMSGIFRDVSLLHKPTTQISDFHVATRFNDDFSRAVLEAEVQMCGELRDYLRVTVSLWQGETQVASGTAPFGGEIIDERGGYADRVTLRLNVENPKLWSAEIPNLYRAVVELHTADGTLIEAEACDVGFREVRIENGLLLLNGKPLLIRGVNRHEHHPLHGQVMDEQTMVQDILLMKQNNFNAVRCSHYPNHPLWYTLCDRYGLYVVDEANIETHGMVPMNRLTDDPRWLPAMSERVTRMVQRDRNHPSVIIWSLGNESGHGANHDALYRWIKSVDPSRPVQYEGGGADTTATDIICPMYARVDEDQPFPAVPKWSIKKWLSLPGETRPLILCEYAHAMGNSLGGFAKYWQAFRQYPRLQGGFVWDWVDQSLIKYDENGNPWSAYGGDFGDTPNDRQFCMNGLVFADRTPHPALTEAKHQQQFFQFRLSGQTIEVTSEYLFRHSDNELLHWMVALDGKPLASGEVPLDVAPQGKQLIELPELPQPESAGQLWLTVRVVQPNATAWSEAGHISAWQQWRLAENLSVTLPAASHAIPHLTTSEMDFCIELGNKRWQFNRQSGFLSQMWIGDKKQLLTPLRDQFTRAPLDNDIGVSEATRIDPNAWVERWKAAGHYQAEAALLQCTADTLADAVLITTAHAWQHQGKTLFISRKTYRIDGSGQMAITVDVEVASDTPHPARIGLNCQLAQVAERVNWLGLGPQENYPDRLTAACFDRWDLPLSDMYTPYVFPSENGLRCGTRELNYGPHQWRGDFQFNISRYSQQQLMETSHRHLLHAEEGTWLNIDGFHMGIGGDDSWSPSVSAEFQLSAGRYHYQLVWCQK
SMILES,"IC50 ([1]; CXCR6, dose range 1)","pIC50 [1, 5]","pIC50 ([1]; CXCR6, run 1, dose range 2)","pIC50 ([1]; CXCR6, run 2, dose range 1)","pIC50 ([1]; CXCR6, run 2, dose range 2)",IC50 ([2]; dose range 1),"pIC50 [2, 6]","pIC50 ([3]; CCR6, dose range 1)","pIC50 [3, 7]","pIC50 ([3]; CCR6, run 2, dose range 1)",pIC50 ([4]; dose range 1),"pIC50 [4, 6]","pIC50 ([4]; run 2, dose range 1)","pIC50 ([4]; run 3, dose range 1)",inhibition [1] [%],"pIC50 ([1]; CXCR6, dose range 1)",pIC50 ([2]; dose range 1),IC50 ([4]; dose range 1)
COc1ccc(C2CC(c3c(O)n(CCc4ccccc4)c(=O)[nH]c3=O)=NN2)cc1OC (stereo not given),inactive,4.85,5.20,4.65,5.06,inactive,4.28,4.83,4.74,4.67,4.98,4.84,4.66,4.98,,,,
C=CS(=O)(=O)c1c2cc(OC)ccc2nc2ccc(OC)cc12,inactive,4.90,,5.00,,> 80 µM (inactive),< 4.10,4.97,4.93,4.90,4.77,4.73,4.73,4.69,117,,,
COc1ccc(OC)c(/C=C/c2ccc3cccc(O)c3n2)c1,,5.27,5.29,5.28,5.16,> 80 µM (inactive),< 4.10,5.43,5.23,5.10,5.19,5.08,4.99,5.07,,5.38,,
Cn1c(O)c(C2=NNC(c3ccc(Cl)cc3)C2)c(=O)n(C)c1=O (stereo not given),inactive,4.93,5.20,4.77,5.09,,4.58,4.95,4.87,4.80,5.00,4.88,4.70,5.02,,,4.58,
COc1cc(/C=C/c2ccc3cccc(O)c3n2)cc(OC)c1OC,,5.43,5.47,5.39,5.39,> 80 µM (inactive),< 4.10,5.46,5.39,5.34,5.36,5.29,5.34,5.19,,5.49,,
Cc1ccc(OCCn2c(NC(=O)c3ccco3)nc3ccccc32)cc1,,5.17,,5.14,,,4.48,5.37,5.40,5.43,4.95,4.99,5.05,4.97,146,5.19,4.48,
Cc1ccc(/C=N/NC(=S)N2CCOCC2)cc1,,5.42,5.50,5.34,5.57,> 80 µM (inactive),< 4.10,5.45,5.37,5.31,5.31,5.29,5.25,5.31,,5.30,,
O=C1CN(C(=O)CSc2nc3cc(Cl)ccc3c(=O)n2Cc2ccccc2)c2ccccc2N1,,5.07,5.02,< 4.10,5.12,> 80 µM (inactive),< 4.10,5.03,4.95,4.90,,< 4.10,< 4.10,< 4.10,,,,> 80 µM (inactive)
COc1ccc(C(=O)/C(=C\c2ccco2)N2C=CC=CC2=C(C#N)C#N)cc1,,5.31,5.34,5.29,5.30,> 80 µM (inactive),< 4.10,5.49,5.43,5.38,5.20,5.24,5.30,5.25,,5.32,,
CCOc1ccc(NC(=O)CN(C)S(=O)(=O)c2cccs2)cc1,> 80 µM (inactive),< 4.10,,< 4.10,,> 80 µM (inactive),< 4.10,,< 4.10,< 4.10,,< 4.10,< 4.10,< 4.10,-28,,,
CC(=O)/C(=N\Nc1ccc(Cl)cc1Cl)Sc1cccc2cccnc12,,5.39,5.57,5.26,5.56,> 80 µM (inactive),< 4.10,5.47,5.40,5.35,5.55,5.48,5.44,5.47,,5.27,,
CCOC(=O)CSc1cccc2cccnc12,,5.23,5.40,5.09,5.37,> 80 µM (inactive),< 4.10,5.33,5.28,5.23,5.35,5.26,5.17,5.29,,5.15,,
O=C1c2ccccc2C(=O)N1OS(=O)(=O)c1ccc(F)cc1,> 80 µM (inactive),< 4.10,,< 4.10,,> 80 µM (inactive),< 4.10,4.75,4.46,4.29,4.70,4.66,4.57,4.71,69.8,,,
Fc1ccc(Sc2nc(-c3ccccc3)nnc2C(F)(F)F)cc1,inactive,4.92,5.25,4.56,5.08,> 80 µM (inactive),< 4.10,5.13,5.13,5.13,,4.19,4.24,< 4.10,,,,inactive
CCC(C)c1ccc(O)c(NC(=S)NC(=O)c2cccnc2)c1 (stereo not given),inactive,4.89,5.10,4.69,4.89,inactive,4.25,5.12,4.92,4.79,5.05,4.95,4.84,4.98,,,,
Cc1ccc(C(=O)Sc2cccccc2=O)cc1,,5.84,,5.75,,> 80 µM (inactive),< 4.10,5.93,5.81,5.72,5.98,5.62,5.34,5.82,42.3,5.96,,
Oc1c(I)cc(Cl)c2cccnc12,,5.36,,5.65,,> 80 µM (inactive),< 4.10,5.28,5.19,5.12,5.43,4.73,4.89,4.40,49.5,5.19,,
CC1(C)CC(=O)C2=C(C1)OC1=C(C(=O)CC(C)(C)C1)C2c1ccc(O)cc1O,,5.01,5.04,5.03,4.97,> 80 µM (inactive),< 4.10,5.33,5.26,5.21,4.95,4.97,5.05,4.93,,4.99,,
O=[N+]([O-])c1cc([N+](=O)[O-])c2cc3ccccc3nc2c1,> 80 µM (inactive),< 4.10,,< 4.10,,> 80 µM (inactive),< 4.10,,< 4.10,< 4.10,,< 4.10,< 4.10,< 4.10,-64.9,,,
O=C(Nc1nnc(SCc2ccc(F)cc2)s1)c1ccccn1,,5.39,5.26,5.46,5.49,> 80 µM (inactive),< 4.10,5.37,5.34,5.32,5.51,5.44,5.41,5.42,,,,
C/C(=N\NC(=O)c1ccc(F)cc1)c1ccccn1,,5.94,6.06,5.86,6.11,> 80 µM (inactive),< 4.10,6.01,5.92,5.85,6.07,6.00,5.86,6.10,,5.81,,
N#CC(C#N)=C1C=CC=CN1/C(=C\c1ccccc1Cl)C(=O)c1ccccc1,,5.04,5.01,5.10,4.96,> 80 µM (inactive),< 4.10,5.11,5.17,5.24,4.84,4.84,4.93,4.76,,5.11,,
